Measured values: ChEMBL document CHEMBL1201862, “PubChem BioAssay data set” (2004)
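Method: 48-hour compound exposure of cells in 96-well plates, five concentrations, linear interpolation of endpoints. GI50 = concentration required for 50% inhibition of growth.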 Calls of active or inactive are those of the source. Cut-off read from the data, not from the text of the source: active = GI50 up to about 1.1 µM and inactive = higher.

Tests used:
Test in all cases: inhibition of tumour cell growth, NCI panel, 48 h
[1] = tested on: 786-0
[2] = tested on: CAKI-1
[3] = tested on: DU-145
[4] = tested on: HCC 2998
[5] = tested on: HOP-62
[6] = tested on: HOP-92
[7] = tested on: Hs-578T
[8] = tested on: KM12
[9] = tested on: MDA-MB-435
[10] = tested on: NCI-H226
[11] = tested on: NCI-H460
[12] = tested on: OVCAR-3
[13] = tested on: OVCAR-8
[14] = tested on: RPMI-8226
[15] = tested on: SN12C
[16] = tested on: SNB-19
[17] = tested on: T47D
[18] = tested on: TK-10
[19] = tested on: UO-31
[20] = tested on: Malme-3M

Structure (SMILES)	GI50 [1]	GI50 [2]	GI50 [3]	GI50 [4]	GI50 [5]	GI50 [6]	GI50 [7]	GI50 [8]	GI50 [9]	GI50 [10]	GI50 [11]	GI50 [12]	GI50 [13]	GI50 [14]	GI50 [15]	GI50 [16]	GI50 [17]	GI50 [18]	GI50 [19]	GI50 [20]
O=C(Cc1ccccc1CCO)NCCc1ccccc1	> 100 µM (inactive)	> 100 µM (inactive)	> 100 µM (inactive)	> 100 µM (inactive)	> 100 µM (inactive)	> 100 µM (inactive)	> 100 µM (inactive)	> 100 µM (inactive)	> 100 µM (inactive)	> 100 µM (inactive)	> 100 µM (inactive)	> 100 µM (inactive)	> 100 µM (inactive)	> 100 µM (inactive)	> 100 µM (inactive)	> 100 µM (inactive)	> 100 µM (inactive)	> 100 µM (inactive)	41.8 µM (inactive)	–
Cc1n[nH]c(=O)n1Nc1ccccc1	> 100 µM (inactive)	> 100 µM (inactive)	> 100 µM (inactive)	> 100 µM (inactive)	> 100 µM (inactive)	> 100 µM (inactive)	> 100 µM (inactive)	> 100 µM (inactive)	> 100 µM (inactive)	> 100 µM (inactive)	> 100 µM (inactive)	> 100 µM (inactive)	> 100 µM (inactive)	> 100 µM (inactive)	> 100 µM (inactive)	> 100 µM (inactive)	> 100 µM (inactive)	–	> 100 µM (inactive)	> 100 µM (inactive)
O=[N+]([O-])c1ccc2[nH]ncc2c1Cl	36.3 µM (inactive)	> 10 µM (inactive)	16.6 µM (inactive)	29.6 µM (inactive)	50.6 µM (inactive)	63 µM (inactive)	21.4 µM (inactive)	25.3 µM (inactive)	36.1 µM (inactive)	8.69 µM (inactive)	33.1 µM (inactive)	33.8 µM (inactive)	27.5 µM (inactive)	20.1 µM (inactive)	31.7 µM (inactive)	36.8 µM (inactive)	17.5 µM (inactive)	83.6 µM (inactive)	–	–
COc1ccc(NC(=O)C2=C(SC)C(=O)N=C2N)cc1	> 100 µM (inactive)	> 100 µM (inactive)	> 100 µM (inactive)	> 100 µM (inactive)	> 100 µM (inactive)	> 100 µM (inactive)	> 100 µM (inactive)	> 100 µM (inactive)	> 100 µM (inactive)	> 100 µM (inactive)	> 100 µM (inactive)	–	> 100 µM (inactive)	> 100 µM (inactive)	–	> 100 µM (inactive)	> 100 µM (inactive)	> 100 µM (inactive)	> 100 µM (inactive)	–
SC1CCCN(Cc2ccccc2)C1 (stereo not given)	35.7 µM (inactive)	74.1 µM (inactive)	> 100 µM (inactive)	16.2 µM (inactive)	> 100 µM (inactive)	60 µM (inactive)	78.5 µM (inactive)	34.1 µM (inactive)	31.6 µM (inactive)	> 100 µM (inactive)	23.9 µM (inactive)	> 100 µM (inactive)	46.1 µM (inactive)	21.3 µM (inactive)	95.3 µM (inactive)	> 100 µM (inactive)	27.5 µM (inactive)	69.7 µM (inactive)	54.2 µM (inactive)	–
CC12CC3OC(=O)C1COC14OC5(C2C1=O)C(O)(CCC1C4CC(O)C2(O)CC=CC(=O)C12C)C(=O)OC35C (stereo not given)	> 100 µM (inactive)	> 100 µM (inactive)	> 100 µM (inactive)	> 100 µM (inactive)	–	> 100 µM (inactive)	> 100 µM (inactive)	> 100 µM (inactive)	68.4 µM (inactive)	> 100 µM (inactive)	> 100 µM (inactive)	> 100 µM (inactive)	> 100 µM (inactive)	> 100 µM (inactive)	> 100 µM (inactive)	> 100 µM (inactive)	> 100 µM (inactive)	> 100 µM (inactive)	> 100 µM (inactive)	> 100 µM (inactive)
CN/C(=N\N)NS(=O)(=O)c1cc(C)c(Cl)cc1S	27.3 µM (inactive)	45.8 µM (inactive)	> 100 µM (inactive)	87.7 µM (inactive)	> 100 µM (inactive)	75.2 µM (inactive)	20.6 µM (inactive)	76 µM (inactive)	43.5 µM (inactive)	> 100 µM (inactive)	–	57.5 µM (inactive)	96.2 µM (inactive)	74 µM (inactive)	> 100 µM (inactive)	> 100 µM (inactive)	24.4 µM (inactive)	77.4 µM (inactive)	25.1 µM (inactive)	46.8 µM (inactive)
COC(=O)CCC(=O)NC1=C(NCc2ccccc2)C(=O)c2ccccc2C1=O	38.5 µM (inactive)	26.2 µM (inactive)	45.3 µM (inactive)	37.2 µM (inactive)	–	15.7 µM (inactive)	> 100 µM (inactive)	24.8 µM (inactive)	18.9 µM (inactive)	85.1 µM (inactive)	18 µM (inactive)	3.95 µM (inactive)	27.7 µM (inactive)	34 µM (inactive)	25.5 µM (inactive)	21.7 µM (inactive)	34 µM (inactive)	45.3 µM (inactive)	32.6 µM (inactive)	–
CC(=O)O[C@H]1[C@H](OC(C)=O)[C@@H](CN=[N+]=[N-])OCO[C@@H]1CN=[N+]=[N-]	> 100 µM (inactive)	–	> 100 µM (inactive)	> 100 µM (inactive)	> 100 µM (inactive)	> 100 µM (inactive)	< 0.01 µM (active)	> 100 µM (inactive)	> 100 µM (inactive)	> 100 µM (inactive)	> 100 µM (inactive)	–	> 100 µM (inactive)	> 100 µM (inactive)	> 100 µM (inactive)	> 100 µM (inactive)	> 100 µM (inactive)	> 100 µM (inactive)	–	> 100 µM (inactive)
COc1ccc(/C=N\N(C)Cc2cccc3ccsc23)cc1	> 100 µM (inactive)	> 100 µM (inactive)	> 100 µM (inactive)	> 100 µM (inactive)	> 100 µM (inactive)	> 100 µM (inactive)	> 100 µM (inactive)	> 100 µM (inactive)	> 100 µM (inactive)	> 100 µM (inactive)	> 100 µM (inactive)	33.6 µM (inactive)	> 100 µM (inactive)	–	> 100 µM (inactive)	> 100 µM (inactive)	> 100 µM (inactive)	> 100 µM (inactive)	> 100 µM (inactive)	> 100 µM (inactive)
COc1ccc(S(=O)(=O)Nc2ccc(-c3csc(N4C(=O)/C(=C/c5cccs5)N=C4c4ccccc4)n3)cc2)cc1Cl	57.5 µM (inactive)	> 100 µM (inactive)	42.2 µM (inactive)	44.7 µM (inactive)	4.08 µM (inactive)	22.5 µM (inactive)	35.2 µM (inactive)	49.1 µM (inactive)	44 µM (inactive)	65.5 µM (inactive)	41.1 µM (inactive)	43.6 µM (inactive)	34 µM (inactive)	–	66.2 µM (inactive)	49.7 µM (inactive)	19.9 µM (inactive)	56.1 µM (inactive)	28.1 µM (inactive)	32.3 µM (inactive)
C=C1CCCCCCCCCCC1[S+]([O-])c1ccccc1 (stereo not given)	18.8 µM (inactive)	> 100 µM (inactive)	49.1 µM (inactive)	> 100 µM (inactive)	60.8 µM (inactive)	> 100 µM (inactive)	44.5 µM (inactive)	–	23.9 µM (inactive)	44.7 µM (inactive)	58.9 µM (inactive)	34.1 µM (inactive)	–	20.8 µM (inactive)	23.2 µM (inactive)	56.6 µM (inactive)	> 100 µM (inactive)	–	18.2 µM (inactive)	> 100 µM (inactive)
Cc1cc(S(=O)(=O)NC2=Nc3cccc4cccc(c34)N2)c(S)cc1Cl	84.5 µM (inactive)	> 100 µM (inactive)	> 100 µM (inactive)	> 100 µM (inactive)	–	> 100 µM (inactive)	> 100 µM (inactive)	48.1 µM (inactive)	83.4 µM (inactive)	> 100 µM (inactive)	55.6 µM (inactive)	53.7 µM (inactive)	> 100 µM (inactive)	> 100 µM (inactive)	–	79.1 µM (inactive)	> 100 µM (inactive)	–	> 100 µM (inactive)	> 100 µM (inactive)
CC[C@]12C=CCN3CC[C@@]4(c5cc(Br)c(OC)cc5N(C)[C@H]4[C@@](O)(C(=O)NN)[C@@H]1O)[C@@H]32	57.5 µM (inactive)	> 100 µM (inactive)	> 100 µM (inactive)	> 100 µM (inactive)	> 100 µM (inactive)	> 100 µM (inactive)	76.4 µM (inactive)	> 100 µM (inactive)	93.5 µM (inactive)	43 µM (inactive)	> 100 µM (inactive)	58.9 µM (inactive)	46.9 µM (inactive)	–	76.9 µM (inactive)	91.6 µM (inactive)	40.4 µM (inactive)	59.4 µM (inactive)	> 100 µM (inactive)	69.8 µM (inactive)
CCCCCCCCCCOCCOCCOCCOCCCCC(O)CCCCCCCC1=C[C@H](C)OC1=O (stereo not given in full)	18.6 µM (inactive)	14.1 µM (inactive)	14.7 µM (inactive)	13.2 µM (inactive)	–	14.2 µM (inactive)	14.8 µM (inactive)	10.6 µM (inactive)	12 µM (inactive)	10.9 µM (inactive)	7.89 µM (inactive)	16.2 µM (inactive)	13.4 µM (inactive)	0.933 µM (active)	13.3 µM (inactive)	13.8 µM (inactive)	8.39 µM (inactive)	10.2 µM (inactive)	7.78 µM (inactive)	19.6 µM (inactive)
